Reference: article PMC12377313, “New 1E,1′E-hydrazine-bis(phenoxy-1,2,3-triazol-acetamide) derivatives as potent inhibitors against acetylcholinesterase, butyrylcholinesterase, and α-glucosidase” (RSC Advances, 2025)

Tests used:
[1] = target: T1, AChE (Homo sapiens, UniProt P22303); assay: biochemical; format: biochemical; conditions: read-out: IC50 (nM) AChE
[2] = target: T2, α-glucosidase (Saccharomyces cerevisiae, UniProt P53341); assay: α-Glucosidase inhibition assay (p-NPG substrate); format: biochemical, yeast
T2 sequence (P53341 whole entry): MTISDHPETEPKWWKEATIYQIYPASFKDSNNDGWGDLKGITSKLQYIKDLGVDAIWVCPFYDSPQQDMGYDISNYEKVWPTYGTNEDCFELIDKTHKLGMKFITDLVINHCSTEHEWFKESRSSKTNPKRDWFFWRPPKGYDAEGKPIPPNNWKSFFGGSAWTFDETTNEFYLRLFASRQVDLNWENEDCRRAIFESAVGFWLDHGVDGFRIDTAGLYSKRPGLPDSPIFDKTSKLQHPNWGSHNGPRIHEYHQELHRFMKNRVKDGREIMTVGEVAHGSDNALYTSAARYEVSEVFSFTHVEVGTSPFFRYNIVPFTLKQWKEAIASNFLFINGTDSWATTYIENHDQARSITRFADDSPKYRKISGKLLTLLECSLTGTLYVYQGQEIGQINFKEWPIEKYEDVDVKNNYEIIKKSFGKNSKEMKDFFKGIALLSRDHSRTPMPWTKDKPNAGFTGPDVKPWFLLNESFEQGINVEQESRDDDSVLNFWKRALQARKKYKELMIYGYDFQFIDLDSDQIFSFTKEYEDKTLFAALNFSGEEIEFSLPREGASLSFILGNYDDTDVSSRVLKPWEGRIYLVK
Protocol: For this assay, the yeast form of α-glucosidase was used and p-nitrophenyl-α-D-glycopyranoside (p-NPG) was used as the substrate. The required solutions of these materials were prepared in a phosphate buffer solution (pH of 7.4 and a concentration of 5 mM). […] Subsequently, a mixture containing 200 μL of phosphate solution, 50 μL of the substrate, and 5–200 μL of the sample solution was pre-incubated at 35 °C for 3 min for α-glucosidase.

[3] = system: SH-SY5Y neuroblastoma cells; assay: MTT cell viability assay, SH-SY5Y; format: cell-based, human; conditions: for Selectivity (selectivity index): HEK293 versus SH-SY5Y; for IC50: Homo sapiens, SH-SY5Y, 24 h, 24 h treatment, MTT, mean ± SD (n = 3), read-out: IC50 (μM) SH-SY5Y
Protocol: The cells were incubated at 37 °C in a humidified atmosphere of 5% CO2. Both cell lines were provided by the American Type Culture Collection (ATCC).[30,31]
Each concentration was tested in triplicate.
(§1) Following treatment, 10 μL of MTT solution (5 mg mL^−1 in PBS) was added to each well and incubated for an additional 4 hours under the same conditions. At the end of the incubation period, the medium containing MTT was carefully removed, and the formazan crystals formed by viable cells were solubilized in 100 μL of DMSO per well. The absorbance was measured at 570 nm using a microplate reader. The net absorbance (after blank subtraction) was used to calculate the percentage cell viability relative to the untreated control cells, which was set at 100%. All results were expressed as mean ± standard deviation (SD) of three independent experiments.[32,33]

[4] = system: HEK293 embryonic kidney cells; assay: MTT cell viability assay, HEK293; format: cell-based; conditions: Homo sapiens, HEK293; 24 h treatment, MTT, mean ± SD (n = 3); read-out: IC50 (μM) HEK-293
Protocol: The human neuroblastoma cell line SH-SY5Y (ATCC® CRL-2266™) and HEK293 (ATCC® CRL-1573™) human embryonic kidney cells were grown in Dulbecco's Modified Eagle Medium/Nutrient Mixture F-12 (DMEM/F-12) culture containing 10% heat-inactivated fetal bovine serum (FBS) and 1% antibiotics. The cells were incubated at 37 °C in a humidified atmosphere of 5% CO2. Both cell lines were provided by the American Type Culture Collection (ATCC).[30,31]
SH-SY5Y (ATCC® CRL-2266™) and HEK293 (ATCC® CRL-1573™) cells were seeded into 96-well plates at a density of 5 × 10^3 cells per well, and allowed to adhere overnight in a humidified incubator at 37 °C with 5% CO2. After attachment, the cells were treated with eight different concentrations of the target compounds (200, 100, 50, 25, 12.5, 6.25, 3.125, and 1.5625 μM), prepared via serial 1 : 2 dilutions, for 24 hours. Each concentration was tested in triplicate.
as §1

[5] = target: T2, α-glucosidase; assay: Kinetic study (Lineweaver–Burk plots), α-glucosidase; format: biochemical
Protocol: In this regard, compound 10k for AChE and BChE and compound 10h for α-glucosidase were selected. The type of inhibition of these compounds was determined by Lineweaver–Burk plots. […] These indicated a competitive type of inhibition for compound 10k.

[6] = target: T3, BChE (Homo sapiens, UniProt P06276); assay: biochemical
T3 sequence (P06276 29-602): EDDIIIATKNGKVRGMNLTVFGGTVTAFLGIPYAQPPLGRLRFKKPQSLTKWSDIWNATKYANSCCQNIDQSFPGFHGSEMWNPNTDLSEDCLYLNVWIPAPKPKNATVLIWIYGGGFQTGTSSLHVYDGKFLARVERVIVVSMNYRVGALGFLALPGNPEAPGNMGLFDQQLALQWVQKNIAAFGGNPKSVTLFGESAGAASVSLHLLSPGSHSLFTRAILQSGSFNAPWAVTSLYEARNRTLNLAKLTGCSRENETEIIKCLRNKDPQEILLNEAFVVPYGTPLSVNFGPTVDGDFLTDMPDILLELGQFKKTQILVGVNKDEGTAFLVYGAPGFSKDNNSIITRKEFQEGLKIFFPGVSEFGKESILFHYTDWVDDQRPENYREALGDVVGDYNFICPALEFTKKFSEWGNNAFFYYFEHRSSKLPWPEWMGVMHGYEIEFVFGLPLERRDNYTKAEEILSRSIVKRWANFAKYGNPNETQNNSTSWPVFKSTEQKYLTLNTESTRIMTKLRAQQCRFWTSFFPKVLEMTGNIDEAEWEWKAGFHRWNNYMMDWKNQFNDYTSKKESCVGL

[7] = target: T1, AChE; assay: Kinetic study (Lineweaver–Burk plots), AChE; format: biochemical
Protocol: (§2) […]. In this regard, compound 10k for AChE and BChE and compound 10h for α-glucosidase were selected. The type of inhibition of these compounds was determined by Lineweaver–Burk plots. […] These indicated a competitive type of inhibition for compound 10k.

[8] = target: T3, BChE; assay: Kinetic study (Lineweaver–Burk plots), BChE; format: biochemical
Protocol: as §2

T1 sequence (P22303 32-614): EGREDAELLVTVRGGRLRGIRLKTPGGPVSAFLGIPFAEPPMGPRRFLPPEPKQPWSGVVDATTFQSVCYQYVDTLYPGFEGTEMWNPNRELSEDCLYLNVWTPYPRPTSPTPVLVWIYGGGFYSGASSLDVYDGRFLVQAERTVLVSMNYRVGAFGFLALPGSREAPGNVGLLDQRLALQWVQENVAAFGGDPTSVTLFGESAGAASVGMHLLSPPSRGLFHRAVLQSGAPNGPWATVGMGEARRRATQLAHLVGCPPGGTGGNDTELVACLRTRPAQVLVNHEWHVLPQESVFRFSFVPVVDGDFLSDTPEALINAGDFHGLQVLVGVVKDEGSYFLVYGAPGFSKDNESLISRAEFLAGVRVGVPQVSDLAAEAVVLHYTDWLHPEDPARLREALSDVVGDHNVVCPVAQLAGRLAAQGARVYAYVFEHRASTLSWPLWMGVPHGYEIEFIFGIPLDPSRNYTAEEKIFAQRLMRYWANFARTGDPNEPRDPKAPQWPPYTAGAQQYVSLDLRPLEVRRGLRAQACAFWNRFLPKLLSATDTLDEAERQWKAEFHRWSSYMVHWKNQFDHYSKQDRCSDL

O=C(Cn1cc(COc2ccc(/C=N/N=C/c3ccc(OCc4cn(CC(=O)Nc5ccccc5Cl)nn4)cc3)cc2)nn1)Nc1ccccc1Cl [Compound 10h, 2,2′-((((((1E,1′E)-Hydrazine-1,2-diylidenebis(methaneylylidene))bis(4,1-phenylene))bis(oxy))bis(methylene))bis(1H-1,2,3-triazole-4,1-diyl))bis(N-(2-chlorophenyl)acetamide)]
IC50 [1]: 118 ± 9.17 nM | IC50 [2]: 23.9 ± 3.42 nM | Selectivity (selectivity index) [3]: 10.6 | IC50 [3]: 7.42 ± 0.07 µM | IC50 [4]: 78.38 ± 0.57 µM | type of inhibition against α-glucosidase [5]: non-competitive | IC50 [6]: 19.4 ± 0.65 nM

O=C(Cn1cc(COc2ccc(/C=N/N=C/c3ccc(OCc4cn(CC(=O)Nc5ccc(Cl)cc5Cl)nn4)cc3)cc2)nn1)Nc1ccc(Cl)cc1Cl [Compound 10k, 2,2′-((((((1E,1′E)-Hydrazine-1,2-diylidenebis(methaneylylidene))bis(4,1-phenylene))bis(oxy))bis(methylene))bis(1H-1,2,3-triazole-4,1-diyl))bis(N-(2,4-dichlorophenyl)acetamide)]
IC50 [1]: 105 ± 7.32 nM | IC50 [2]: 46.1 ± 3.26 nM | Selectivity (selectivity index) [3]: 10.1 | IC50 [3]: 8.11 ± 0.07 µM | IC50 [4]: 81.71 ± 0.56 µM | type of inhibition against AChE [7]: competitive | type of inhibition against BChE [8]: competitive | IC50 [6]: 10.1 ± 1.08 nM
